The text below walks through data of patent publication US10231954B2, “Neurodegenerative therapies” (LYTIX BIOPHARMA AS, priority 2014, dated 2019).

Assay type in all cases: biochemical
One assay deals with T1, TSSK1 (Homo sapiens, UniProt Q9BXA7).
T1 sequence (Q9BXA7 1-367): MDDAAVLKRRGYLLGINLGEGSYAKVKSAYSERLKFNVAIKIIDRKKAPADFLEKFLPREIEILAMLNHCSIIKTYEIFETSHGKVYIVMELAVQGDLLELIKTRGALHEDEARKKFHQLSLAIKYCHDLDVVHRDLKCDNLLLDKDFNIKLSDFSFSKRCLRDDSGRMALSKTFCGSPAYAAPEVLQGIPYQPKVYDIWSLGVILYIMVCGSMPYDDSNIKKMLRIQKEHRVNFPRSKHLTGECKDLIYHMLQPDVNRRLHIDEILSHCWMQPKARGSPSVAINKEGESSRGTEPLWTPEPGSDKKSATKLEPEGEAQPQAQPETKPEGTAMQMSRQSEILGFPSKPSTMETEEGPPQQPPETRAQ
Put plainly: Kinase profiling TSSK1. As to conditions: for remaining activity at 100 µM: read-out: residual kinase activity, TSSK1. The source says: (§1) Any value less that 25 is considered to be highly significant inhibition.

The next assay has as its target T2, BRSK1 (Homo sapiens, UniProt Q8TDC3).
T2 sequence (Q8TDC3 1-778): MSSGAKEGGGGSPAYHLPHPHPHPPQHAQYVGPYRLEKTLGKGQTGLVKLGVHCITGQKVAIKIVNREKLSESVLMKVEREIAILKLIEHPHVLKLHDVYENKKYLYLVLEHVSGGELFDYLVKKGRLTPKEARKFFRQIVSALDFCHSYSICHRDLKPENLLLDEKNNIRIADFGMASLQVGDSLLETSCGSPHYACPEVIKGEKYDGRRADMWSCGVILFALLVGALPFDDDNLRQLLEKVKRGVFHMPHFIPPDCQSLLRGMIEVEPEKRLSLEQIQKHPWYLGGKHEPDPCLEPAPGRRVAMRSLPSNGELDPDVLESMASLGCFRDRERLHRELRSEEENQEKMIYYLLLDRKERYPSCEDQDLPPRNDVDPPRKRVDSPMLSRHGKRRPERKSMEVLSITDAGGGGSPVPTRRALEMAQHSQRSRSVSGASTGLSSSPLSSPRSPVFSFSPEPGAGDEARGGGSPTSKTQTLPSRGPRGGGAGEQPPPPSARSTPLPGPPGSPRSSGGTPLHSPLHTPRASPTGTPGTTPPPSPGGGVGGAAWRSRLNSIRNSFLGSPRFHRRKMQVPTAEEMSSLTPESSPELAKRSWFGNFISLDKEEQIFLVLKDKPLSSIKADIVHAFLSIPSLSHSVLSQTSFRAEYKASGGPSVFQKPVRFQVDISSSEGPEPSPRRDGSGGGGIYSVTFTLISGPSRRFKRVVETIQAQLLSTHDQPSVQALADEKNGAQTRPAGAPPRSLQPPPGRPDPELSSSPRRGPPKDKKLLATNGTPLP
Put plainly: Kinase profiling BRSK1. The settings on record: for remaining activity at 100 µM: read-out: residual kinase activity, BRSK1.
Description: as §1

In the next assay the target is MLK1 (Homo sapiens, UniProt P80192). Put plainly: Kinase profiling MLK1. The settings on record: for remaining activity at 100 µM: read-out: residual kinase activity, MLK1.
Chain of MLK1 (P80192 whole entry, species assumed): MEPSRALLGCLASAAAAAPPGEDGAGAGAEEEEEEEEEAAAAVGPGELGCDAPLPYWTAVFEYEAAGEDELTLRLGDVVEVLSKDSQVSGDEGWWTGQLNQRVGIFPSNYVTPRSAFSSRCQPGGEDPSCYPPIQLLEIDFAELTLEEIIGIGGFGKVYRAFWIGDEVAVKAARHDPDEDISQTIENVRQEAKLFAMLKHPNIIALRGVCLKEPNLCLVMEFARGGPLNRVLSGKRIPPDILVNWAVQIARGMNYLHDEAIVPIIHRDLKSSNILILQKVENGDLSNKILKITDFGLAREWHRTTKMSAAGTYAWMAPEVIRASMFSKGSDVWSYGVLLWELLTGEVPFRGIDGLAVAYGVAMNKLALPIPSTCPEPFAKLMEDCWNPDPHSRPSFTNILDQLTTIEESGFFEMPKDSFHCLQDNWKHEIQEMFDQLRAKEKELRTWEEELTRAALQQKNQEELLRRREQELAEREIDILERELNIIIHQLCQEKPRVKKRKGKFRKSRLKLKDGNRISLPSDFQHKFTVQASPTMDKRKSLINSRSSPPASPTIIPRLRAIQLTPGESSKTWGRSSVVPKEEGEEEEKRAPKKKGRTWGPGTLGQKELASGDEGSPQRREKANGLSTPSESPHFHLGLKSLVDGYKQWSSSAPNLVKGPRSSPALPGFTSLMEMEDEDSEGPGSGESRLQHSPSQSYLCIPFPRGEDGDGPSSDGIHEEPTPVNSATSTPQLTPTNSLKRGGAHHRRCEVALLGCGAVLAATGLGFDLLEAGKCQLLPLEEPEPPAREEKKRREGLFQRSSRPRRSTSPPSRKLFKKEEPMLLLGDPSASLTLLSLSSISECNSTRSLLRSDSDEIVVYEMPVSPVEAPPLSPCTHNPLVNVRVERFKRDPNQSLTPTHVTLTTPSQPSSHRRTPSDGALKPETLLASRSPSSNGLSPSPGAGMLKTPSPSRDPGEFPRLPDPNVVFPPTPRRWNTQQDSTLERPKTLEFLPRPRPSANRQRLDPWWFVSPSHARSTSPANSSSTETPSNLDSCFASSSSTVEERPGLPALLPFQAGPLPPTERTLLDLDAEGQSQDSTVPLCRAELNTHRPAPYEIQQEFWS
Description: as §1

The target in a further assay is BRK (Homo sapiens, UniProt Q13882). Put plainly: Kinase profiling BRK. As to conditions: for remaining activity at 100 µM: read-out: residual kinase activity, BRK.
Chain of BRK (Q13882 whole entry, species assumed): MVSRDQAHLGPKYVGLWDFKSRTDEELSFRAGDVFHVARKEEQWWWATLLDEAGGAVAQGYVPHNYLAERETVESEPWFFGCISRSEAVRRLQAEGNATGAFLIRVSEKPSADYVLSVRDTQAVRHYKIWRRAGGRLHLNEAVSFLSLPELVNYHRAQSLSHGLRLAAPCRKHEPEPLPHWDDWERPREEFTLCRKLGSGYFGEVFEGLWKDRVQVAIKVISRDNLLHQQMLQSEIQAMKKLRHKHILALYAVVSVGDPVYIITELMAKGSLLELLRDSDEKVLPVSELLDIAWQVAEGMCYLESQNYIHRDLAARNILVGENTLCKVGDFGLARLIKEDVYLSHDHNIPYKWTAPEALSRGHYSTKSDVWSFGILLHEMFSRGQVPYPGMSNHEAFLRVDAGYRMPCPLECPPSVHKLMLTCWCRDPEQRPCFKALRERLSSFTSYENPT
Description: as §1

Another assay addresses T3, EPH-B2 (Homo sapiens, UniProt P29323).
T3 sequence (P29323 19-1055): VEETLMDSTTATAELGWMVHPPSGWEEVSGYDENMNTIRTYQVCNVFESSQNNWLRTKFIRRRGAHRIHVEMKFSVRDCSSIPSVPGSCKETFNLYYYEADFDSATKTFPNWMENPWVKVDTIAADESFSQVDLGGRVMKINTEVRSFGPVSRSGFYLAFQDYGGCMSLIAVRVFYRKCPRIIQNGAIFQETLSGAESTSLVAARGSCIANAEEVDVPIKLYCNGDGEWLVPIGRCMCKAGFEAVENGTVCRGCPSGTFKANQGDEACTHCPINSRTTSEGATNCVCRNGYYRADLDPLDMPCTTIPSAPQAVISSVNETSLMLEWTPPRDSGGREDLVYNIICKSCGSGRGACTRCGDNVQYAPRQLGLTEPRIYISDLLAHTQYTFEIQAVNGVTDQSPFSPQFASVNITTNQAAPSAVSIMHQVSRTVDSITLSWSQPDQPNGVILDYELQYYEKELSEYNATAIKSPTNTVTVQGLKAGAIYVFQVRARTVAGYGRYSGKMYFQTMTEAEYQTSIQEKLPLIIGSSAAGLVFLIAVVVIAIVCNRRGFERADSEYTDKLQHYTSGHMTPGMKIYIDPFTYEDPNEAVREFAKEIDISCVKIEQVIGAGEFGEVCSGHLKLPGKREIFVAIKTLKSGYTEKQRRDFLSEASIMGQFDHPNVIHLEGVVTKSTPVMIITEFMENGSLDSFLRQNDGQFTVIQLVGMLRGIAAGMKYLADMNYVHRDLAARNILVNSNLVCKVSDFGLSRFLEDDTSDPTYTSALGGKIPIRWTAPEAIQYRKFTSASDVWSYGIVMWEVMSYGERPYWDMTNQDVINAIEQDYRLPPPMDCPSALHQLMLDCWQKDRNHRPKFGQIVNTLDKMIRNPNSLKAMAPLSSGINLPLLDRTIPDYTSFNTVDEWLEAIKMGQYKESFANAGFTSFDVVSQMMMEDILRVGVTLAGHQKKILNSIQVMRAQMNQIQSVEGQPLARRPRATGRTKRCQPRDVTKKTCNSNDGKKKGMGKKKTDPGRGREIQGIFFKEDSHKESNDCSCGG
Put plainly: Kinase profiling EPH-B2. As to conditions: for remaining activity at 100 µM: read-out: residual kinase activity, EPH-B2.
Description: as §1

A further assay deals with WNK1 (Homo sapiens, UniProt Q9H4A3). Put plainly: Kinase profiling WNK1. As to conditions: for remaining activity at 100 µM: read-out: residual kinase activity, WNK1.
Description: as §1

The next assay has as its target SIK2 (Homo sapiens, UniProt Q9H0K1). Put plainly: Kinase profiling SIK2. As to conditions: for remaining activity at 100 µM: read-out: residual kinase activity, SIK2.
Description: as §1

The target of a further assay is OSR1 (Homo sapiens, UniProt O95747). Put plainly: Kinase profiling OSR1. As to conditions: for remaining activity at 100 µM: read-out: residual kinase activity, OSR1.
Chain of OSR1 (O95747 whole entry): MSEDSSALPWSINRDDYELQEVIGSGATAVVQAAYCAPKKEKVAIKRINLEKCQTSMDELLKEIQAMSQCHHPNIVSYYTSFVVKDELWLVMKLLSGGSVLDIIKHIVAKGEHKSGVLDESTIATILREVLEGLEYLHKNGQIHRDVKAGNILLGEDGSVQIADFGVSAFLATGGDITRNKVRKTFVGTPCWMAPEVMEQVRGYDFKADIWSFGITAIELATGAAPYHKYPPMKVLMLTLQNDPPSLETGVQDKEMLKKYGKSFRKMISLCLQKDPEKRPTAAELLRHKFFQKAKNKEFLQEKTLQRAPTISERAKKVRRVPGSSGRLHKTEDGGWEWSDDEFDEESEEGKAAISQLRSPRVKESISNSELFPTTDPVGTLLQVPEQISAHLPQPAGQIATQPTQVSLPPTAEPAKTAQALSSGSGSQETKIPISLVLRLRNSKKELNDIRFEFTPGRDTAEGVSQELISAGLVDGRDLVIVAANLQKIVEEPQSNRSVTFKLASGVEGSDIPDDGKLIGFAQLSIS
Description: as §1

A further assay addresses CK1γ2 (Homo sapiens, UniProt P78368). Put plainly: Kinase profiling CK1γ2. As to conditions: for remaining activity at 100 µM: read-out: residual kinase activity, CK1γ2.
Description: as §1

The mark [1] stands for this setting: 100 micromolar inhibitor concentration, 100 is no change.
[2] abbreviates: 100 micromolar inhibitor, 100 = no change.

Like-named read-outs stand apart in the source and are kept apart here.

Chain of CK1γ2 (P78368 whole entry): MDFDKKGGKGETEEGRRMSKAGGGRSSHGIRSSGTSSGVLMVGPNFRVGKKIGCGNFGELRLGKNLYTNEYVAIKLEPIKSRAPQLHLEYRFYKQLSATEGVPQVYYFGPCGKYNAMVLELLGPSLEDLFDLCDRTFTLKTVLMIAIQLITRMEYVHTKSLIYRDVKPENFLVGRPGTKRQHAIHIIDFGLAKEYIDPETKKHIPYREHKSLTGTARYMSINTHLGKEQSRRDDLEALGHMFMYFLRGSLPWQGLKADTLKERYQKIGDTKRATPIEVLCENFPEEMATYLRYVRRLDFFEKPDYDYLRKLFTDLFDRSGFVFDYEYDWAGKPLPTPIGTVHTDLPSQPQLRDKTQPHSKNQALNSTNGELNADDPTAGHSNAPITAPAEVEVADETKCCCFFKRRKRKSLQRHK
Chain of SIK2 (Q9H0K1 whole entry, species assumed): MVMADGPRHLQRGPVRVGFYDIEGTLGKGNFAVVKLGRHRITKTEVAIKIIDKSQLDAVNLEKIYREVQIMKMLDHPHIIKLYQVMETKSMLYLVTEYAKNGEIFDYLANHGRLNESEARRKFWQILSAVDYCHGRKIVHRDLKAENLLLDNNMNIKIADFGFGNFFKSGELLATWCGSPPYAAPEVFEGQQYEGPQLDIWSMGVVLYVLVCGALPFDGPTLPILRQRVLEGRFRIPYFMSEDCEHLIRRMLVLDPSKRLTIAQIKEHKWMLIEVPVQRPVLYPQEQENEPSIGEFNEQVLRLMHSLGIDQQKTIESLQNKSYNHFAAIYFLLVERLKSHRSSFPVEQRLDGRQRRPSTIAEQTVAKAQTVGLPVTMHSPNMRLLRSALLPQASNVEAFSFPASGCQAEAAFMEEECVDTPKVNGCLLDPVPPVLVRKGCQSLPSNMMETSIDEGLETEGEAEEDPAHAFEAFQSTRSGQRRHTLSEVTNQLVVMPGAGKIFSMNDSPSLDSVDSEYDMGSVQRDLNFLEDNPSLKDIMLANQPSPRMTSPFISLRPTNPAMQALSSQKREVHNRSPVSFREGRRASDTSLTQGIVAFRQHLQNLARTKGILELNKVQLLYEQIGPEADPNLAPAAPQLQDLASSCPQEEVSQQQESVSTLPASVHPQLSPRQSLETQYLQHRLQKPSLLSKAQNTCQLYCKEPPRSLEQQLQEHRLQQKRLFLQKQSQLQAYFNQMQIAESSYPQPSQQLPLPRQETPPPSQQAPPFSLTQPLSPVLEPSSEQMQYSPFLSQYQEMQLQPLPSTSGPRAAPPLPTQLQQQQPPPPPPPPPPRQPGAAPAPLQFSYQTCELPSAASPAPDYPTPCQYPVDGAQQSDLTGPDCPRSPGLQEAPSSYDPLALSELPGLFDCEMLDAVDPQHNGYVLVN

On to `CC(=O)Nc1nc2cc(O)ccc2s1` [Compound 01-66, N-(5-hydroxybenzo[d]thiazol-2-yl)acetamide], for which the remaining activity at 100 µM worked out at 65% at TSSK1; 48% at BRSK1; 39% on MLK1; 77% on BRK; 70% on EPH-B2; 101% on WNK1. The remaining activity at 100 µM at SIK2 was found to be 56%; on OSR1, 95%; on CK1γ2, 6%.
For the molecule `CC(=O)Nc1nc2ccc(O)cc2s1` [Compound 01-71], the remaining activity at 100 µM on TSSK1 (setting [1]) was 67%; on BRSK1 (setting [1]) it was 16%; at MLK1 (setting [1]) it was 11%; at BRK (setting [1]), 22%; at EPH-B2 (setting [1]) it was 59%; at WNK1 (setting [1]) it was 96%. Further, the remaining activity at 100 µM came to 32% at SIK2 (setting [1]), 78% at OSR1 (setting [1]) and 10% at CK1γ2 (setting [1]).
Turning to `CC(=O)Nc1nc2ccc(C(F)(F)F)cc2s1` [Compound 01-90], the remaining activity at 100 µM at TSSK1 (setting [1]) came out at 90%; on BRSK1 (setting [1]) it was 83%; at MLK1 (setting [1]), 39%; on BRK (setting [1]) it was 99%; on EPH-B2 (setting [1]), 38%; on WNK1 (setting [1]) it was 100%. Moreover, the remaining activity at 100 µM at SIK2 (setting [1]) stood at 72%; at OSR1 (setting [1]), 75%; at CK1γ2 (setting [1]), 59%.
Regarding `CC(=O)Nc1nc2ccc(C#N)cc2s1` [Compound 01-94], the remaining activity at 100 µM on TSSK1 (setting [1]) is 55%; on BRSK1 (setting [1]), 62%; at MLK1 (setting [1]), 34%; on BRK (setting [1]) it was 100%; at EPH-B2 (setting [1]), 42%; at WNK1 (setting [1]), 101%. Further, the remaining activity at 100 µM on SIK2 (setting [1]) worked out at 70%; on OSR1 (setting [1]), 79%; on CK1γ2 (setting [1]), 18%.
As for `CC(=O)Nc1cccc(NC(=O)c2nc3ccc(O)cc3s2)c1` [Compound 03-07, N-(3-acetamidophenyl)-6-hydroxybenzo[d]thiazole-2-carboxamide], the remaining activity at 100 µM at TSSK1 (setting [2]) was determined as 57%; on BRSK1 (setting [2]) it was 52%; on MLK1 (setting [2]), 26%; at BRK (setting [2]) it was 80%; on EPH-B2 (setting [2]), 110%; on WNK1 (setting [2]) it was 115%. Besides, the figures for the remaining activity at 100 µM on SIK2 (setting [2]), on OSR1 (setting [2]) and on CK1γ2 (setting [2]) were 28%, 87% and 77%, respectively.
For `O=C(Nc1nc2cc(O)ccc2s1)c1ccncc1` [Compound 03-11], the “residual kinase activity, TSSK1” value at TSSK1 (setting [1]) came to 97. Also, on BRSK1 (setting [1]), the “residual kinase activity, BRSK1” value was determined as 70. For the same molecule, on MLK1 (setting [1]), the “residual kinase activity, MLK1” value was determined as 71. For the same molecule, the “residual kinase activity, BRK” value on BRK (setting [1]) turned out to be 93. Besides, the “residual kinase activity, EPH-B2” value at EPH-B2 (setting [1]) was found to be 89. For the same molecule, the “residual kinase activity, WNK1” value at WNK1 (setting [1]) was 88. On SIK2 (setting [1]), the “residual kinase activity, SIK2” value turned out to be 79. Moreover, at OSR1 (setting [1]), the “residual kinase activity, OSR1” value is given as 90. The “residual kinase activity, CK1γ2” value at CK1γ2 (setting [1]) was found to be 81.
Consider `O=C(Nc1nc2ccc(O)cc2s1)c1ccccn1` [Compound 03-12], for which the “residual kinase activity, TSSK1” value on TSSK1 (setting [1]) amounted to 66. Further, the “residual kinase activity, BRSK1” value at BRSK1 (setting [1]) is on record as 63. Besides, the “residual kinase activity, MLK1” value on MLK1 (setting [1]) amounted to 31. Moreover, the “residual kinase activity, BRK” value on BRK (setting [1]) stood at 61. Also, the “residual kinase activity, EPH-B2” value at EPH-B2 (setting [1]) is reported as 103. Moreover, the “residual kinase activity, WNK1” value at WNK1 (setting [1]) is 91. Moreover, on SIK2 (setting [1]), the “residual kinase activity, SIK2” value came to 77. For the same molecule, on OSR1 (setting [1]), the “residual kinase activity, OSR1” value is listed as 59. At CK1γ2 (setting [1]), the “residual kinase activity, CK1γ2” value turned out to be 57.
In the case of `O=C(Nc1nc2cc(O)ccc2s1)c1ccccn1` [Compound 03-13], the “residual kinase activity, TSSK1” value on TSSK1 (setting [1]) was determined as 95. On BRSK1 (setting [1]), the “residual kinase activity, BRSK1” value came to 95. In addition, the “residual kinase activity, MLK1” value at MLK1 (setting [1]) is on record as 68. The “residual kinase activity, BRK” value at BRK (setting [1]) stood at 94. Besides, the “residual kinase activity, EPH-B2” value at EPH-B2 (setting [1]) stood at 72. The “residual kinase activity, WNK1” value at WNK1 (setting [1]) turned out to be 100. Also, the “residual kinase activity, SIK2” value on SIK2 (setting [1]) worked out at 96. In addition, on OSR1 (setting [1]), the “residual kinase activity, OSR1” value is reported as 97. In addition, on CK1γ2 (setting [1]), the “residual kinase activity, CK1γ2” value was found to be 83.
As for `COc1ccc2sc(NC(C)=O)nc2c1` [Compound 03-21], the remaining activity at 100 µM on TSSK1 (setting [1]) was found to be 75%; on BRSK1 (setting [1]) it was 85%; at MLK1 (setting [1]), 84%; at BRK (setting [1]), 62%; at EPH-B2 (setting [1]), 96%; on WNK1 (setting [1]), 121%. Moreover, the results for the remaining activity at 100 µM on SIK2 (setting [1]), on OSR1 (setting [1]) and at CK1γ2 (setting [1]) were 89%, 119% and 6%, respectively.
